# Assay results as given in ChEMBL document CHEMBL1144896 (2003).
# Legend:
# Format in all cases: functional
# [1] = tested on: BJ; assay: Compound was tested for human telomerase reverse transcriptase-SEAP (hTERT-SEAP) activity in immortalized hTERT-BJI at 3.0 uM concentration
# [2] = tested on: NCI-H1299; assay: hTERT-SEAP (Human telomerase reverse transcriptase-SEAP) activity in non-small cell lung cancer H1299 cell at 3.0 uM concentration and level of cell viability determined in MTT assay
# [3] = tested on: NCI-H1299; assay: hTERT-SEAP (Human telomerase reverse transcriptase-SEAP) activity in non-small cell lung cancer H1299 cell at 300.0 uM concentration and level of cell viability determined in MTT assay
# [4] = tested on: BJ; assay: hTERT-SEAP (Human telomerase reverse transcriptase-SEAP) activity in immortalized hTERT-BJI at 3.0 uM concentration and level of cell viability determined in MTT assay
# [5] = tested on: BJ; assay: Compound was tested for human telomerase reverse transcriptase-SEAP (hTERT-SEAP) activity in immortalized hTERT-BJI at 30.0 uM concentration
# [6] = tested on: NCI-H1299; assay: Compound was tested for human telomerase reverse transcriptase-SEAP (hTERT-SEAP) activity in non-small cell lung cancer H1299 cell at 300.0 uM concentration
# [7] = tested on: BJ; assay: hTERT-SEAP (Human telomerase reverse transcriptase-SEAP) activity in immortalized hTERT-BJI at 30.0 uM concentration and level of cell viability determined in MTT assay
# [8] = tested on: BJ; assay: Compound was tested for human telomerase reverse transcriptase-SEAP (hTERT-SEAP) activity in immortalized hTERT-BJI at 300.0 uM concentration
# [9] = tested on: BJ; assay: hTERT-SEAP (Human telomerase reverse transcriptase-SEAP) activity in immortalized hTERT-BJI at 300.0 uM concentration and level of cell viability determined in MTT assay
# [10] = tested on: NCI-H1299; assay: hTERT-SEAP (Human telomerase reverse transcriptase-SEAP) activity in non-small cell lung cancer H1299 cell at 30.0 uM concentration and level of cell viability determined in MTT assay
# [11] = tested on: NCI-H1299; assay: Compound was tested for human telomerase reverse transcriptase-SEAP (hTERT-SEAP) activity in non-small cell lung cancer H1299 cell at 3.0 uM concentration
# [12] = tested on: NCI-H1299; assay: Compound was tested for human telomerase reverse transcriptase-SEAP (hTERT-SEAP) activity in non-small cell lung cancer H1299 cell at 30.0 uM concentration
# [13] = tested on: NCI-H1299; assay: hTERT-SEAP (Human telomerase reverse transcriptase-SEAP) activity in non-small cell lung cancer H1299 cell at 240.0 uM concentration and level of cell viability determined in MTT assay
# [14] = tested on: BJ; assay: Compound was tested for human telomerase reverse transcriptase-SEAP (hTERT-SEAP) activity in immortalized hTERT-BJI at 24 uM concentration
# [15] = tested on: NCI-H1299; assay: hTERT-SEAP (Human telomerase reverse transcriptase-SEAP) activity in non-small cell lung cancer H1299 cell at 2.4 uM concentration and level of cell viability determined in MTT assay
# [16] = tested on: BJ; assay: hTERT-SEAP (Human telomerase reverse transcriptase-SEAP) activity in immortalized hTERT-BJI at 240.0 uM concentration and level of cell viability determined in MTT assay
# [17] = tested on: BJ; assay: Compound was tested for human telomerase reverse transcriptase-SEAP (hTERT-SEAP) activity in immortalized hTERT-BJI at 2.4 uM concentration
# [18] = tested on: NCI-H1299; assay: Compound was tested for human telomerase reverse transcriptase-SEAP (hTERT-SEAP) activity in non-small cell lung cancer H1299 cell at 24 uM concentration
# [19] = tested on: NCI-H1299; assay: Compound was tested for human telomerase reverse transcriptase-SEAP (hTERT-SEAP) activity in non-small cell lung cancer H1299 cell at 240.0 uM concentration
# [20] = tested on: BJ; assay: hTERT-SEAP (Human telomerase reverse transcriptase-SEAP) activity in immortalized hTERT-BJI at 24 uM concentration and level of cell viability determined in MTT assay
# [21] = tested on: NCI-H1299; assay: Compound was tested for human telomerase reverse transcriptase-SEAP (hTERT-SEAP) activity in non-small cell lung cancer H1299 cell at 2.4 uM concentration
# [22] = tested on: NCI-H1299; assay: hTERT-SEAP (Human telomerase reverse transcriptase-SEAP) activity in non-small cell lung cancer H1299 cell at 24 uM concentration and level of cell viability determined in MTT assay
# [23] = tested on: BJ; assay: Compound was tested for human telomerase reverse transcriptase-SEAP (hTERT-SEAP) activity in immortalized hTERT-BJI at 240.0 uM concentration
# [24] = tested on: BJ; assay: hTERT-SEAP (Human telomerase reverse transcriptase-SEAP) activity in immortalized hTERT-BJI at 26 uM concentration and level of cell viability determined in MTT assay
# [25] = tested on: NCI-H1299; assay: Compound was tested for human telomerase reverse transcriptase-SEAP (hTERT-SEAP) activity in non-small cell lung cancer H1299 cell at 260.0 uM concentration
# [26] = tested on: NCI-H1299; assay: hTERT-SEAP (Human telomerase reverse transcriptase-SEAP) activity in non-small cell lung cancer H1299 cell at 26 uM concentration and level of cell viability determined in MTT assay
# [27] = tested on: NCI-H1299; assay: hTERT-SEAP (Human telomerase reverse transcriptase-SEAP) activity in non-small cell lung cancer H1299 cell at 2.6 uM concentration and level of cell viability determined in MTT assay
# [28] = tested on: NCI-H1299; assay: Compound was tested for human telomerase reverse transcriptase-SEAP (hTERT-SEAP) activity in non-small cell lung cancer H1299 cell at 2.6 uM concentration
# [29] = tested on: BJ; assay: hTERT-SEAP (Human telomerase reverse transcriptase-SEAP) activity in immortalized hTERT-BJI at 260.0 uM concentration and level of cell viability determined in MTT assay
# [30] = tested on: NCI-H1299; assay: Compound was tested for human telomerase reverse transcriptase-SEAP (hTERT-SEAP) activity in non-small cell lung cancer H1299 cell at 26 uM concentration
# [31] = tested on: BJ; assay: Compound was tested for human telomerase reverse transcriptase-SEAP (hTERT-SEAP) activity in immortalized hTERT-BJI at 260.0 uM concentration
# [32] = tested on: BJ; assay: Compound was tested for human telomerase reverse transcriptase-SEAP (hTERT-SEAP) activity in immortalized hTERT-BJI at 26 uM concentration
# [33] = tested on: NCI-H1299; assay: hTERT-SEAP (Human telomerase reverse transcriptase-SEAP) activity in non-small cell lung cancer H1299 cell at 260.0 uM concentration and level of cell viability determined in MTT assay
# [34] = tested on: BJ; assay: Compound was tested for human telomerase reverse transcriptase-SEAP (hTERT-SEAP) activity in immortalized hTERT-BJI at 20 uM concentration
# [35] = tested on: NCI-H1299; assay: hTERT-SEAP (Human telomerase reverse transcriptase-SEAP) activity in non-small cell lung cancer H1299 cell at 200.0 uM concentration and level of cell viability determined in MTT assay
# [36] = tested on: BJ; assay: hTERT-SEAP (Human telomerase reverse transcriptase-SEAP) activity in immortalized hTERT-BJI at 20 uM concentration and level of cell viability determined in MTT assay
# [37] = tested on: NCI-H1299; assay: Compound was tested for human telomerase reverse transcriptase-SEAP (hTERT-SEAP) activity in non-small cell lung cancer H1299 cell at 2.0 uM concentration
# [38] = tested on: BJ; assay: hTERT-SEAP (Human telomerase reverse transcriptase-SEAP) activity in immortalized hTERT-BJI at 200.0 uM concentration and level of cell viability determined in MTT assay
# [39] = tested on: NCI-H1299; assay: (§1) hTERT-SEAP (Human telomerase reverse transcriptase-SEAP) activity in non-small cell lung cancer H1299 cell at 2.0 uM concentration and level of cell viability determined in MTT assay
# [40] = tested on: NCI-H1299; assay: as §1; remark: listed apart in the source
# [41] = tested on: NCI-H1299; assay: hTERT-SEAP (Human telomerase reverse transcriptase-SEAP) activity in non-small cell lung cancer H1299 cell at 20 uM concentration and level of cell viability determined in MTT assay
# [42] = tested on: BJ; assay: Compound was tested for human telomerase reverse transcriptase-SEAP (hTERT-SEAP) activity in immortalized hTERT-BJI at 200.0 uM concentration
# [43] = tested on: NCI-H1299; assay: Compound was tested for human telomerase reverse transcriptase-SEAP (hTERT-SEAP) activity in non-small cell lung cancer H1299 cell at 200.0 uM concentration
# [44] = tested on: NCI-H1299; assay: Compound was tested for human telomerase reverse transcriptase-SEAP (hTERT-SEAP) activity in non-small cell lung cancer H1299 cell at 20 uM concentration
smiles,measurement,setting,value
CCSc1cccc2c1C(=O)c1cccc(SCC)c1C2=O,Relative SEAP activity,[1],109%
same,Relative viability,[2],111%
same,Relative viability,[3],25%
same,Relative viability,[4],112%
same,Relative SEAP activity,[5],110%
same,Relative SEAP activity,[6],99%
same,Relative viability,[7],98%
same,Relative SEAP activity,[8],104%
same,Relative viability,[9],34%
same,Relative viability,[10],44%
same,Relative SEAP activity,[11],134%
same,Relative SEAP activity,[12],111%
O=C1c2cccc(SCC(O)CO)c2C(=O)c2cccc(SCC(O)CO)c21 (centres undefined),Relative viability,[13],83%
same,Relative SEAP activity,[14],136%
same,Relative viability,[15],102%
same,Relative viability,[16],79%
same,Relative SEAP activity,[17],144%
same,Relative SEAP activity,[18],90%
same,Relative SEAP activity,[19],81%
same,Relative viability,[20],86%
same,Relative SEAP activity,[21],105%
same,Relative viability,[22],103%
same,Relative SEAP activity,[23],142%
CCCC(=O)Oc1cccc2c1C(=O)c1cccc(OC(=O)CCC)c1C2=O,Relative viability,[24],106%
same,Relative SEAP activity,[25],111%
same,Relative viability,[26],106%
same,Relative viability,[27],107%
same,Relative SEAP activity,[28],114%
same,Relative viability,[29],85%
same,Relative SEAP activity,[30],118%
same,Relative SEAP activity,[31],134%
same,Relative SEAP activity,[32],119%
same,Relative viability,[33],87%
O=C(CCc1ccccc1)Oc1cccc2c1C(=O)c1cccc(OC(=O)CCc3ccccc3)c1C2=O,Relative SEAP activity,[34],124%
same,Relative viability,[35],54%
same,Relative viability,[36],106%
same,Relative SEAP activity,[37],94%
same,Relative viability,[38],76%
same,Relative viability,[39],111%
same,Relative viability,[40],111%
same,Relative viability,[41],101%
same,Relative SEAP activity,[42],110%
same,Relative SEAP activity,[43],89%
same,Relative SEAP activity,[44],98%
